# Data: patent US10227332B2, “T-type calcium channel modulator and uses thereof” (UTI Limited Partnership, priority 2014, dated 2019)
# Tests used:
# [1] = target: rCB1 (Rattus norvegicus (Rat), UniProt P20272); assay: Radioligand competitive binding assay, CB1 receptor (NIMH PDSP); details: means of three experiments run in triplicate
# Source text: (§1) The compounds was screened using whole-cell voltage clamp techniques for their ability to mediate tonic block of transiently expressed hCav3.2 channels (FIG. 1). Next, radioligand binding assays were used to assess the affinities of these compounds for both CB1 and CB2 receptors (Table 1).
# (§2) CB1 and CB2 radioligand binding data were obtained using National Institute of Mental Health (NIMH) Psychoactive Drug Screening Program (PDSP) resources as described earlier.
# [2] = target: hCB2 (Homo sapiens (Human), UniProt P34972); assay: Radioligand competitive binding assay, CB2 receptor (NIMH PDSP); details: means of three experiments run in triplicate
# Source text: as §1, §2
# [3] = system: wild type mice; assay: Open-field test (locomotor activity); assay type: in vivo, mouse; details: 30 mg/kg, i.p.
# Source text: (§3) During experiments, all efforts were made to minimize animal suffering according to the policies and recommendations of the International Association for the Study of Pain and all protocols used were approved by the Institutional Animal Care and Use Committee. For all experiments, either adult male C57BL/6J (wild-type) or CACNA1H knockout (Cav3.2 null) mice (20-25 g) purchased from Jackson Laboratories were used. There were a maximum of five mice per cage (30×20×15 cm) and access to food and water was unlimited. Temperature was kept at 23±1° C. on a 12 h light/dark cycle (lights on at 7:00 a.m.). Intraperitoneal (i.p.) injections of drugs were a constant volume of 10 ml/kg body weight. Intrathecal (i.t.) injections used volumes of 10 μl and were performed using the method described previously and carried out routinely in our laboratory. All drugs were dissolved in 1% or less DMSO, whereas control animals received PBS+1% DMSO. For each test, a different group of mice were used and only one experiment per mouse was performed.
# Briefly, the apparatus consisted of a wooden box measuring 40×60×50 cm with a glass front wall. The floor was divided into 12 equal squares and the entire apparatus was placed in a sound free room. Animals were placed in the rear left square and left to explore freely and the number of squares crossed with all paws (crossing) in a 6 minute timeframe was counted. […]
# [4] = system: mice with partial sciatic nerve injury; assay: Partial sciatic nerve injury (PNI)-induced neuropathic pain, mechanical hyperalgesia; assay type: in vivo, mouse; details: 30 mg/kg, i.p.; after treatment
# Source text: as §3
# Before surgery, mice were anaesthetised with isoflurane (5% induction, 2.5% maintenance). […] Mechanical hyperalgesia was then evaluated in a time-dependant manner.
# Mechanical hyperalgesia responses were recorded immediately before the surgeries (baselines), 14 days after the surgeries (0) and at various time points (0.5, 1, 2, 3 h) after treatment. […]
# [5] = system: wild-type mice, formalin-induced pain; assay: Formalin test (acute nociceptive and inflammatory phases); assay type: in vivo, mouse; details: for inhibition of pain response time, first phase: formalin first phase; for inhibition of pain response time, second phase: formalin second phase
# Source text: as §3
# Before experiments were performed, mice were left to acclimatize for at least 60 minutes. Animals were then injected intraplantarily (i.pl.) in the ventral surface of the right hindpaw with 20 μl of a formalin solution (1.25%) made up in PBS. Following i.pl. injections of formalin, individual animals were placed immediately into observation chambers and monitored from 0-5 min (acute nociceptive phase) and 15-30 min (inflammatory phase).
# [6] = 1-10 μg/i.t., 20 minutes before
# [7] = 10-100 mg/kg, i.p., 30 minutes prior
structure (smiles),measurement,setting,value
"CCCCCn1c2ccccc2c2cc(C(=O)NCC3CCNCC3)ccc21 [Compound 7, 9-Pentyl-N-(piperidin-4-ylmethyl)-9H-carbazole-3-carboxamide]",rCB1 Ki,[1],n.b.
same,hCB2 Ki,[2],n.b.
"CCCCCn1c2ccccc2c2cc(C(=O)NCC3CCN(CC(=O)NC(C)(C)C)CC3)ccc21 [Compound 9, N-((1-(2-(tert-butylamino)-2-oxoethyl)piperidin-4-yl)methyl)-9-pentyl-9H-carbazole-3-carboxamide]",locomotor activity in open-field test,[3],no significant motor deficits
same,locomotor activity in open-field test,[3]; listed as compound 9,did not significantly affect locomotor activity
same,duration of attenuation of mechanical hyperalgesia,[4],> 3 h
same,"inhibition of pain response time, first phase",[5]; [6],61±8%
same,"inhibition of pain response time, second phase",[5]; [6],76±10%
same,"inhibition of pain response time, first phase",[5]; [7],47±2%
same,"inhibition of pain response time, second phase",[5]; [7],66±48%
